Laboratory results: patent US4350700A, “Pharmaceutical composition containing 1,3,5-substituted biuret compound” (Taiho Pharmaceutical Company, Limited, priority 1979, dated 1982)
Where two headings read alike, the source gives them in different places.

How the values were obtained:
[1] = test system: carrageenin-induced inflammation of the hindpaw of the rat; assay: Anti-inflammatory activity, acute carrageenin-induced inflammatory test; format: in vivo, rats (Wistar strain, male); conditions: Rattus norvegicus, read-out: Anti-inflammatory activity, inflammation inhibitory ratio
Description: (§1) Next, several tests for determining the pharmacological properties, in that acute toxicity, anti-pyretic activity, analgesic activity and anti-inflammatory activity of the present 1,3,5-substituted biuret compounds of the formula (1) were conducted and the test results are shown in Table (2). In the tests, each compounds to be tested was used as a suspension in 0.25% carboxymethylcellulose solution. Methods for testing are explained as follows:
4. Anti-inflammatory Activity
According to the method of acute carrageenin-induced inflammatory test [Folia Pharmacologia Japonica, Vol. 56, pp. 575 (1960)], the Wistar strain of male rats (body weight, 150-180 g) were used as test animals. The rats were fasted overnight, 100 mg/kg body weight of the test compound was administered orally, then 1 hour after the administration, 0.1 ml of 1% carrageenin solution, as the inflammation inducing agent, was injected subcutaneously to the hindpaw of the rat and the volume of the hindpaw was measured at time sequences. Anti-inflammatory activity of the test compound was calculated as inflammation inhibitory ratio (%) at 3 hours after the injection of inflammation inducing agent.

[2] = test system: pain reaction of the mouse caused by a clamp; assay: Analgesic activity, Haffner method; format: in vivo, mice (ddy strain, male); conditions: for Analgesic activity, Haffner method, inhibitory ratio: mice
Description: as §1
According to the modified method reported by Fujimura et al., [Bulletin of the Institute for Chemical Research, Kyoto University, No. 25, pp. 36 (1951)], the ddy strain of male mice (body weight, 20-25 g) were used as test animals. The mice were fasted overnight, 100 mg/kg body weight of the test compound was administered orally, then 45 minutes after the administration, the threshhold amount (1.5-2.5 mg/kg body weight) of morphine hydrochloride was injected subcutaneously. Then 1-hour pain reaction of the mouse caused by a clamp was observed. Analgesic activity of the test compound was calculated as the inhibitory ratio (%). In Table 2, the values in parentheses show the data obtained from the test by using the dosage other than 100 mg/kg body weight. Further, the values indicated with Δ marks show 50% effective dose, ED50 (mg/kg body weight).

ddy strain of male mice = assay: Acute toxicity (oral, general symptom and death observed for 7 days); format: in vivo; conditions: 7 days
Description: as §1
The ddy strain of male mice (body weight, 20-25 g) were used as test animals. The mice were fasted overnight and the compound to be tested was administered orally. […] The lethal dose (mg/kg, body weight) of the test compound was determined in connection with the death number of mice/the number of mice tested. In Table 2, the values indicated with Δ marks are 50% lethal dose, LD50 (mg/kg, body weight).

[3] = test system: acetic acid-induced stretching symptom of mouse; assay: Analgesic activity, acetic acid-induced stretching method; format: in vivo, mice (ddy strain, male); conditions: for inhibition in vivo at 200 mg/kg / inhibition in vivo at 100 mg/kg: read-out: Analgesic activity, acetic acid-induced stretching method, inhibitory ratio
Description: as §1
(1) Acetic acid-induced stretching method
According to the method reported by Koster et.al., [Fed. Proc., Vol. 18, pp. 412 (1959)], the ddy strain of male mice (body weight, 20-25 g) were used as test animals. The mice were fasted overnight, 100 mg/kg body weight of the test compound was administered orally, then 1 hour after the administration, 0.2 ml of 0.7% acetic acid solution was injected intraperitoneally. The acetic acid-induced stretching symptom of mouse was observed. Analgesic activity of the test compound was calculated as the inhibitory ratio (%). In Table 2, the values in parentheses show the data obtained from the test by using the dosage other than 100 mg/kg body weight. Further, the values indicated with Δ marks show 50% effective dose, ED50 (mg/kg body weight).

[4] = 100 mg/kg oral, rats, 3 hours after carrageenin
[5] = 200 mg/kg oral, rats, 3 hours after carrageenin

SMILES	Acute toxicity, death number of mice/number of mice tested (ddy strain of male mice; 1000 mg/kg oral)	Acute toxicity, death number of mice/number of mice tested (ddy strain of male mice; 2000 mg/kg oral)	Analgesic activity, Haffner method, inhibitory ratio ([2]; 100 mg/kg oral) [%]	inhibition in vivo at 100 mg/kg ([3]; po) [%]	further results
CCNC(=O)NC(=O)Nc1ccc(Cl)c(Cl)c1 [compound 27, 1-Ethyl-5-(3,4-dichlorophenyl)biuret]	0/4	1/4	–	–	inhibition in vivo at 200 mg/kg ([1]; po, 3 h): 44%; Analgesic activity, Haffner method, inhibitory ratio ([2]; 200 mg/kg oral): 12.5%; inhibition in vivo at 200 mg/kg ([3]; po): 12.5%
CN(C(=O)NCC(C)(C)O)C(=O)Nc1ccccc1 [Compound No. 57, 1-(2-Methyl-2-hydroxypropyl)-3-methyl-5-phenylbiuret]	0/4	2/4	50	–	inhibition in vivo at 100 mg/kg ([3]; 100 mg/kg oral, mice): 100%
COCCNC(=O)N(C)C(=O)Nc1ccccc1 [compound 59, 1-(2-Methoxyethyl)-3-methyl-5-phenylbiuret]	1/4	4/4	25	–	inhibition in vivo at 100 mg/kg ([3]; 100 mg/kg oral, mice): 25%
CNC(=O)NC(=O)Nc1ccccc1 [Compound No. 2]	4/4	–	50	75	inhibition in vivo at 100 mg/kg ([1]; po, 3 h): 28%; Acute toxicity, death number of mice/number of mice tested (ddy strain of male mice; 500 mg/kg oral): 0/4
CN(C(=O)NCC(=O)O)C(=O)Nc1ccccc1 [compound 60, 1-Carboxymethyl-3-methyl-5-phenylbiuret]	–	0/4	25	–	inhibition in vivo at 100 mg/kg ([3]; 100 mg/kg oral, mice): 25%
CN(C(N)=O)C(=O)Nc1ccccc1 [Compound No. 1]	–	2/4	–	37.5	–
CN(C(=O)Nc1ccccc1)C(=O)Nc1ccccc1 [compound 64]	–	0/4	–	37.5	Analgesic activity, Haffner method, inhibitory ratio ([2]; 200 mg/kg oral): 12.5%
CN(C(=O)NCCO)C(=O)Nc1ccccc1 [compound 56, 1-(2-Hydroxyethyl)-3-methyl-5-phenylbiuret]	–	0/4	37.5	62.5	inhibition in vivo at 100 mg/kg [1, 4]: 42%
CCCNC(=O)NC(=O)NCc1ccccc1 [compound 42]	–	0/4	–	–	inhibition in vivo at 200 mg/kg [1, 5]: 31%; Analgesic activity, Haffner method, inhibitory ratio ([2]; 200 mg/kg oral): 50%; inhibition in vivo at 200 mg/kg ([3]; 200 mg/kg oral, mice): 82.5%
CNC(=O)N(C)C(=O)Nc1ccccc1C(=O)O [compound 10, 1,3-Dimethyl-5-(2-carboxyphenyl)biuret]	1/4	4/4	–	12.5	–
CCCCNC(=O)NC(=O)NCc1ccccc1 [compound 48]	–	0/4	–	–	inhibition in vivo at 200 mg/kg [1, 5]: 46%; ED50 ([2]; Mus musculus, oral, mice (Δ values; range in parentheses), read-out: Analgesic activity, Haffner method, 50% effective dose ED50): 110 mg/kg; ED50 ([3]; oral, mice (Δ values; range in parentheses), read-out: Analgesic activity, acetic acid-induced stretching method, 50% effective dose ED50): 111 mg/kg
CNC(=O)N(C)C(=O)NCc1ccccc1 [compound 12]	4/4	–	50	–	inhibition in vivo at 100 mg/kg ([1]; po, 3 h): 47%; Acute toxicity, death number of mice/number of mice tested (ddy strain of male mice; 500 mg/kg oral): 0/4; inhibition in vivo at 100 mg/kg ([3]; 100 mg/kg oral, mice): 100%
CN(C(=O)NCCCl)C(=O)Nc1ccccc1 [compound 53, 1-(2-Chloroethyl)-3-methyl-5-phenylbiuret]	–	0/4	25	12.5	inhibition in vivo at 100 mg/kg ([1]; po, 3 h): 40%
CCNC(=O)NC(=O)NCc1ccccc1 [compound 29, 1-Ethyl-5-benzylbiuret]	0/4	1/4	25	12.5	inhibition in vivo at 100 mg/kg [1, 4]: 31%
CCNC(=O)NC(=O)Nc1cccc(Cl)c1 [compound 25, 1-Ethyl-5-(3-chlorophenyl)biuret]	–	0/4	–	–	inhibition in vivo at 200 mg/kg [1, 5]: 86%; Analgesic activity, Haffner method, inhibitory ratio ([2]; 200 mg/kg oral): 37.5%; inhibition in vivo at 200 mg/kg ([3]; 200 mg/kg oral, mice): 25%
CNC(=O)N(C(=O)Nc1ccccc1)c1ccccc1 [Compound No. 22, 1-methyl-3,5-diphenylbiuret]	–	0/4	–	37.5	inhibition in vivo at 100 mg/kg [1, 4]: 35%; Analgesic activity, Haffner method, inhibitory ratio ([2]; 200 mg/kg oral): 50%
CCNC(=O)NC(=O)Nc1ccc(Cl)cc1 [compound 26]	–	0/4	–	–	inhibition in vivo at 200 mg/kg [1, 5]: 76%; Analgesic activity, Haffner method, inhibitory ratio ([2]; 200 mg/kg oral): 25%; inhibition in vivo at 200 mg/kg ([3]; po): 12.5%
CCN(C(=O)NC)C(=O)Nc1ccccc1 [Compound No. 21, 1-Methyl-3-ethyl-5-phenylbiuret]	1/4	3/4	37.5	50	inhibition in vivo at 100 mg/kg [1, 4]: 56%
CONC(=O)N(C)C(=O)Nc1ccccc1 [compound 63, 1-Methoxy-3-methyl-5-phenylbiuret]	0/4	4/4	25	50	inhibition in vivo at 100 mg/kg ([1]; po, 3 h): 50%
CCNC(=O)NC(=O)Nc1ccccn1 [compound 30, 1-Ethyl-5-(2-pyridyl)biuret]	0/4	3/4	37.5	–	inhibition in vivo at 100 mg/kg ([1]; po, 3 h): 30%
CCNC(=O)N(C)C(=O)Nc1ccc(O)cc1 [compound 34, 1-Ethyl-3-methyl-5-(4-hydroxyphenyl)biuret]	–	0/4	12.5	–	inhibition in vivo at 100 mg/kg [1, 4]: 19%; inhibition in vivo at 100 mg/kg ([3]; 100 mg/kg oral, mice): 25%
CC(=O)NC(=O)N(C)C(=O)Nc1ccccc1 [compound 61, 1-Acetyl-3-methyl-5-phenylbiuret]	–	0/4	12.5	50	–
CNC(=O)N(C)C(=O)NCc1ccccn1 [compound 13, 1,3-Dimethyl-5-(2-pyridylmethyl)biuret]	0/4	2/4	37.5	–	inhibition in vivo at 100 mg/kg ([3]; 100 mg/kg oral, mice): 25%
CN(C(=O)NO)C(=O)Nc1ccccc1 [compound 62, 1-Hydroxy-3-methyl-5-phenylbiuret]	0/4	1/4	25	–	–
CCCCNC(=O)NC(=O)Nc1ccccc1 [compound 46]	–	0/4	–	–	inhibition in vivo at 200 mg/kg [1, 5]: 84%; Analgesic activity, Haffner method, inhibitory ratio ([2]; 200 mg/kg oral): 25%
CN(C(=O)NCC(O)CO)C(=O)Nc1ccccc1 (centres unmarked) [compound 58, 1-(2,3-Dihydroxypropyl)-3-methyl-5-phenylbiuret]	–	0/4	37.5	37.5	–
